Experimental data: PubChem BioAssay (NCI)
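The compound was tested at five concentrations on cells cultured in 96-well plates, with a 48-hour exposure period. The concentration for 50% growth inhibition is given as GI50. At the TGI there is no net growth.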

Assays:
Test in all cases: inhibition of tumour cell growth, NCI panel, 48 h
EKVX NSCLC = test system: EKVX NSCLC
HCC-2998 colon = test system: HCC-2998 colon
HT29 colon = test system: HT29 colon
LOX IMVI melanoma = test system: LOX IMVI melanoma
NCI-H460 lung = test system: NCI-H460 lung
OVCAR-3 ovarian = test system: OVCAR-3 ovarian
SK-MEL-28 melanoma = test system: SK-MEL-28 melanoma
SR leukemia = test system: SR leukemia

Row | Compound | TGI (EKVX NSCLC) [µM] | TGI (HCC-2998 colon) [µM] | TGI (HT29 colon) [µM] | TGI (LOX IMVI melanoma) [µM] | TGI (NCI-H460 lung) [µM] | TGI (OVCAR-3 ovarian) [µM] | TGI (SK-MEL-28 melanoma) [µM] | TGI (SR leukemia) [µM] | GI50 (EKVX NSCLC) [µM] | GI50 (HCC-2998 colon) [µM] | GI50 (HT29 colon) [µM] | GI50 (LOX IMVI melanoma) [µM] | GI50 (NCI-H460 lung) [µM] | GI50 (OVCAR-3 ovarian) [µM] | GI50 (SK-MEL-28 melanoma) [µM] | GI50 (SR leukemia) [µM]
1 | O=C(O)C(CS)Nc1c2ccccc2nc2ccccc12 (configuration not stated) | > 100 | > 100 | > 100 | > 100 | > 100 | > 100 | > 100 | > 100 | – | – | – | – | – | – | – | –
2 | COc1ccc(NC(=O)CC(=O)N/N=C/c2ccc(N(CCC#N)S(C)(=O)=O)cc2)cc1 | > 100 | > 100 | > 100 | > 100 | > 100 | > 100 | > 100 | > 100 | – | – | – | – | – | – | – | –
3 | Cc1ccc(-c2nc3nc(-c4ccccc4)nc(N4CCCNCC4)c3o2)cc1 | 3.29 | 4.17 | 3.08 | 3.29 | 3.53 | 3.32 | 3.28 | 0.554 | 1.75 | 2.04 | 1.6 | 1.76 | 1.86 | 1.84 | 1.84 | 0.222
4 | CCCC(=O)OCC1OC(n2cnc3c(=S)nc[nH]c32)C(OC(=O)CCC)C1OC(=O)CCC (configuration not stated) | > 100 | > 100 | > 100 | > 100 | > 100 | > 100 | > 100 | 40.2 | 35 | 2.92 | 3.63 | 2.34 | 8.13 | 0.92 | 77.5 | 2.02
5 | CC/C=C\C[C@H](F)C/C=C1/C(=O)C=C[C@@H]1C/C=C\CCCC(=O)O | 25.1 | 12.2 | 15 | 7.97 | 30.9 | 22.1 | 11.4 | 7.49 | 7.59 | 6.93 | 5.4 | 3.77 | 9.35 | 7.96 | 4.98 | 1.04
6 | Nc1nc2c(nnn2C2CC(O)C(CO)O2)c(=O)[nH]1 (configuration not stated) | > 100 | > 92 | > 100 | > 83.2 | > 100 | > 69 | > 100 | > 76.2 | 93.5 | 3.63 | 13.5 | 0.92 | 7.4 | 4.78 | 20.4 | 2.54
7 | Nc1nc(N(Cc2ccccc2)c2ccccc2)c2cn[nH]c2n1 | > 100 | > 100 | > 100 | > 100 | > 100 | 41.1 | > 100 | 5.64 | 3.57 | 6.41 | 3.54 | 3.91 | 4.39 | 3.34 | 16.9 | 1.3
8 | CCOC(=O)/C(=C\c1ccccc1)C(=O)O | > 100 | > 100 | > 100 | > 100 | > 100 | > 100 | > 100 | > 100 | – | – | – | – | – | – | – | –
9 | NC(=O)COC(=O)c1c(Cl)nc2sccn12 | > 100 | > 100 | > 100 | > 100 | > 100 | > 62.6 | > 100 | 85.4 | – | – | – | – | – | – | – | –
